According to US6525059B1, “Substituted pyrazoles as p38 kinase inhibitors” (G. D. Searle & Company, priority 1998, dated 2003):
Where “and” joins values, the source holds several entries; their conditions need not be identical. Equal entries are not always repeated. Structures can show the parent of a compound that is named as a salt. Where two headings read alike, the source gives them in different places.

Experiments:
[1] = biological target: T1, human GST-p38 kinase alpha (Homo sapiens, UniProt Q16539); experiment: p38 kinase in vitro assay, second format, phosphorylation of EGFRP with 33P-ATP; assay type: biochemical; conditions: read-out: p38α Kinase Assay IC50
T1 construct: The coding region of the human p38a cDNA was obtained by PCR-amplification from RNA isolated from the human monocyte cell line THP.1; made in house; host or cells: E. coli DH10B
How it was run: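 Activated human GST-p38α (pre-activated with GST-MKK6, 1 h, 30 °C) phosphorylates EGFR 21-mer peptide (200 μM) with 50 μM ATP plus γ-33P-ATP, pH 7.5, 60 min at room temperature. Unreacted ATP removed by AG 1×8 resin; supernatant scintillation-counted.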

human TNF = experiment: TNF inhibition: human whole blood assay; assay type: cell-based; conditions: Homo sapiens, LPS, read-out: TNF Inhibition-Human Whole Blood Assay
TNF-α = experiment: Rat assay: LPS-challenged rats, serum TNF-α by ELISA; assay type: in vivo; conditions: Rattus norvegicus, po; for inhibition in vivo at 1 mg/kg / inhibition in vivo at 5 mg/kg: read-out: Rat LPS Assay % Inhibition

T1 sequence (Q16539 whole entry): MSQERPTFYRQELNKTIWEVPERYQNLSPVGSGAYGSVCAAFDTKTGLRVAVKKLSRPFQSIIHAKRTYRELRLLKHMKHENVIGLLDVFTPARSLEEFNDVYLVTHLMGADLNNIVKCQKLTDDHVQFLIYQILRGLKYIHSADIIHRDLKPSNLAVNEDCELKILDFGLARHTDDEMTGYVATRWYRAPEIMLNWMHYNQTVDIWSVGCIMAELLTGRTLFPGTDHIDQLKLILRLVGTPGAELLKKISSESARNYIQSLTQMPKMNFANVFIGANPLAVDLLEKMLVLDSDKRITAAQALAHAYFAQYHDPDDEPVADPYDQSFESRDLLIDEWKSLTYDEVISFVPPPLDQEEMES

SMILES | IC50 ([1]; Table 9, 10% DMSO) | IC50 (human TNF; Table 9, human whole blood) | inhibition in vivo at 20 mg/kg (TNF-α; Table 9, dose 20 mg/kg) | inhibition in vivo at 5 mg/kg (TNF-α; Table 9, dose 5 mg/kg) | other results
C#CCn1nc(N2CCNCC2)c(-c2ccncc2)c1-c1ccc(Cl)cc1 (as salt: hydrochloride) (hydrate or solvate) [Example A-318, 1-[5-(4-chlorophenyl)-4-(4-pyridinyl)-1-(2-propynyl)-1H-pyrazol-3-yl]piperazine, trihydrochloride monohydrate] |  |  |  |  | melting point: 231 to 233 °C (dec.)
CN1CCC(Nc2n[nH]c(-c3ccc(Cl)cc3)c2-c2ccncc2)CC1 [Example A-334, N-[5-(4-chlorophenyl)-4-(4-pyridinyl)-1H-pyrazol-3-yl]-1-methyl-4-piperidinamine] |  |  |  |  | IC50 ([1]; Table 8, 10% DMSO): 70 nM; IC50 (human TNF; Table 8, human whole blood): 220 nM; inhibition in vivo at 1 mg/kg (TNF-α; Table 8, dose 1.0 mg/kg): 36%; inhibition in vivo at 5 mg/kg (TNF-α; Table 8, dose 5.0 mg/kg): 57%; inhibition in vivo at 20 mg/kg (TNF-α; Table 8, dose 20.0 mg/kg): 95%
Fc1ccc(-c2n[nH]cc2-c2ccnc(NCC3CCNCC3)c2)cc1 [Example A-351, 4-[3-(4-fluorophenyl)-1H-pyrazol-4-yl]-N-(4-piperidinylmethyl)-2-pyridinamine] | 270 nM | 490 nM | 0% |  | 
CCN(CC)CC(Nc1cc(-c2c[nH]nc2-c2ccc(F)cc2)ccn1)c1ccccc1 (centres unmarked) [Example A-353, N2,N2-diethyl-N1-[4-[3-(4-fluorophenyl)-1H-pyrazol-4-yl]-2-pyridinyl]-1-phenyl-1,2-ethanediamine] | 37 nM | 5300 nM | 49% |  | 
CC(C)C[C@@H](CO)Nc1cc(-c2c[nH]nc2-c2ccc(F)cc2)ccn1 [Example A-354, (2S)-2-[[4-[3-(4-fluorophenyl)-1H-pyrazol-4-yl]-2-pyridinyl]amino]-4-methyl-1-pentanol] | 220 nM | 25000 nM | 0% |  | 
CC(C)C(CO)Nc1cc(-c2c[nH]nc2-c2ccc(F)cc2)ccn1 (centres unmarked) [Example A-355, 2-[[4-[3-(4-fluorophenyl)-1H-pyrazol-4-yl]-2-pyridinyl]amino]-3-methyl-1-butanol] | 50 nM | 95 nM |  |  | inhibition in vivo at 26 mg/kg (TNF-α; Table 9, dose 26 mg/kg): 0%
CCOC(=O)N1CCC(Nc2cc(-c3c[nH]nc3-c3ccc(F)cc3)ccn2)CC1 [Example A-356, ethyl 4-[[4-[3-(4-fluorophenyl)-1H-pyrazol-4-yl]-2-pyridinyl]amino]-1-piperidinecarboxylate] | < 10 nM | 5300 nM | 73% |  | 
Fc1ccc(-c2n[nH]c(N3CCC(N4CCCC4)CC3)c2-c2ccncc2)cc1 [Example A-357, 4-[3-(4-fluorophenyl)-5-(4-(1-pyrrolidinyl)-1-piperidinyl]-1H-pyrazol-4-yl]pyridine, trihydrochloride] | 120 nM | 250 nM | 74% |  | 
CCN1CCCCC1CCNc1cc(-c2c[nH]nc2-c2ccc(F)cc2)ccn1 (centres unmarked) [Example A-358, N-[2-(1-ethyl-2-piperidinyl)ethyl]-4-[3-(4-fluorophenyl)-1H-pyrazol-4-yl]-2-pyridinamine] | 230 nM | 4000 nM | 71% |  | 
CCN(CC)CCCC(C)Nc1[nH]nc(-c2ccc(F)cc2)c1-c1ccncc1 (centres unmarked) [Example A-359, N1,N1,-diethyl-N4-[5-(4-fluorophenyl)-4-(4-pyridinyl)-1H-pyrazol-3-yl]-1,4-pentanediamine] | 300 nM | 1000 nM | 70% |  | 
CN(C)C1CCN(c2[nH]nc(-c3ccc(F)cc3)c2-c2ccncc2)CC1 [Example A-360, 1-[5-(4-fluorophenyl)-4-(4-pyridinyl)-1H-pyrazol-3-yl]-N,N-dimethyl-4-piperidinamine, trihydrochloride] | 60 nM | 500 nM | 95% | 14% | inhibition in vivo at 1 mg/kg (TNF-α; Table 9, dose 1 mg/kg): 0%
OC[C@@H](Nc1cc(-c2c[nH]nc2-c2ccc(F)cc2)ccn1)c1ccccc1 [Example A-362, (βS)-β-[[4-[3-(4-fluorophenyl)-1H-pyrazol-4-yl]-2-pyridinyl]amino]benzene ethanol] | 690 nM | 5500 nM | 0% |  | 
OC[C@H](Cc1ccccc1)Nc1cc(-c2c[nH]nc2-c2ccc(F)cc2)ccn1 [Example A-363, (βS)-β-[[4-[3-(4-fluorophenyl)-1H-pyrazol-4-yl]-2-pyridinyl]amino]benzene propanol] | 1500 nM | 25000 nM | 6% |  | 
CCN(CC)CCCNc1n[nH]c(-c2ccc(F)cc2)c1-c1ccncc1 [Example A-364, N,N-diethyl-N′-[5-(4-fluorophenyl)-4-(4-pyridinyl)-1H-pyrazol-3-yl]-1,3-propanediamine] | 490 nM | 255 nM | 79% |  | 
NC1CCN(c2[nH]nc(-c3ccc(F)cc3)c2-c2ccncc2)CC1 [Example A-365, 1-[5-(4-fluorophenyl)-4-(4-pyridinyl)-1H-pyrazol-3-yl]-4-piperidinamine, trihydrochloride] | 32 nM | 57 nM | 95% | 50% | inhibition in vivo at 1 mg/kg (TNF-α; Table 9, dose 1 mg/kg): 12%
CCN(CC)CCCC(C)Nc1nccc(-c2c[nH]nc2-c2ccc(F)cc2)n1 (centres unmarked) [Example A-366, N1,N1-diethyl-N4-[4-[3-(4-fluorophenyl)-1H-pyrazol-4-yl]-2-pyrimidinyl]-1,4-pentanediamine] | 41 nM and 60 nM and 40 nM | 290 nM | 92% | 45% | inhibition in vivo at 1 mg/kg (TNF-α; Table 9, dose 1 mg/kg): 6%
C[C@@H](O)CNc1cc(-c2c[nH]nc2-c2ccc(F)cc2)ccn1 [Example A-368, (2R)-1-[[4-[3-(4-fluorophenyl)-1H-pyrazol-4-yl]-2-pyridinyl]amino]-2-propanol] | 42 nM | 660 nM | 88% | 41% | inhibition in vivo at 1 mg/kg (TNF-α; Table 9, dose 1 mg/kg): 28%
CCN(CC)CCCC(C)Nc1cc(-c2c[nH]nc2-c2ccc(Cl)cc2)ccn1 (centres unmarked) [Example A-369, N4-[4-[3-(4-chlorophenyl)-1H-pyrazol-4-yl]-2-pyridinyl]-N1,N1-diethyl-1,4-pentanediamine] | 19 nM and 11 nM and 2.7 nM | 840 nM | 94% | 52% | 
C[C@H](O)CNc1cc(-c2c[nH]nc2-c2ccc(F)cc2)ccn1 [Example A-370, (2S)-1-[[4-[3-(4-fluorophenyl)-1H-pyrazol-4-yl]-2-pyridinyl]amino]-2-propanol] | 160 nM | 1920 nM | 90% | 46% | 
CCOC(=O)N1CCN(c2[nH]nc(-c3ccccc3)c2-c2ccncc2)CC1 [Example A-371, ethyl 4-[5-phenyl-4-(4-pyridinyl)-1H-pyrazol-3-yl]-1-piperazinecarboxylate] | 7900 nM | 25000 nM | 52% |  | 
CCN(CC)CCNc1cc(-c2c[nH]nc2-c2ccc(F)cc2)ccn1 [Example A-374, N,N-diethyl-N′-[4-[3-(4-fluorophenyl)-1H-pyrazol-4-yl]-2-pyridinyl]-1,2-ethanediamine] | 380 nM | 310 nM | 88% | 0% | inhibition in vivo at 1 mg/kg (TNF-α; Table 9, dose 1 mg/kg): 3%
OCC(Nc1cc(-c2c[nH]nc2-c2ccc(F)cc2)ccn1)c1ccccc1 (stereo not drawn) [Example A-376, (βR)-β-[[4-[3-(4-fluorophenyl)-1H-pyrazol-4-yl]-2-pyridinyl]amino]benzene ethanol] | 32 nM | 1000 nM | 24% |  | 
CCN(CC)CCCC(C)Nc1cc(-c2c[nH]nc2-c2ccc(F)cc2)ccn1 (centres unmarked) [Example A-377, N1,N1-diethyl-N4-[4-[3-(4-fluorophenyl)-1H-pyrazol-4-yl]-2-pyridinyl]-1,4-pentanediamine] | 4 nM and 1.9 nM | 670 nM | 84% | 67% | inhibition in vivo at 1 mg/kg (TNF-α; Table 9, dose 1 mg/kg): 32%
CCN(CC)C1CCN(c2n[nH]c(-c3ccc(F)cc3)c2-c2ccncc2)CC1 [Example A-388, 1-[5-(4-fluorophenyl)-4-(4-pyridinyl)-1H-pyrazol-3-yl]-N,N-diethyl-4-piperidinamine, trihydrochloride] | 210 nM | 340 nM | 97% | 67% | 
Fc1ccc(-c2n[nH]c(N3CCSCC3)c2-c2ccncc2)cc1 [Example A-438] |  |  |  |  | IC50 ([1]; Table 10, 10% DMSO, @ 1.0 hour): 560 nM; IC50 (human TNF; Table 10, human whole blood): > 25000 nM; inhibition in vivo at 20 mg/kg (TNF-α; Table 10, dose 20.0 mg/kg): 49%
Clc1ccc(-c2n[nH]c(OC3CCNCC3)c2-c2ccncc2)cc1 [Example A-442] |  |  |  |  | IC50 ([1]; Table 10, 10% DMSO, @ 1.0 hour): 22 nM; IC50 (human TNF; Table 10, human whole blood): 160 nM; inhibition in vivo at 1 mg/kg (TNF-α; Table 10, dose 1.0 mg/kg): 51%; inhibition in vivo at 5 mg/kg (TNF-α; Table 10, dose 5.0 mg/kg): 56%; inhibition in vivo at 20 mg/kg (TNF-α; Table 10, dose 20.0 mg/kg): 92%
